Consider two molecules from patent US20090041888A1, “USE OF FORMULATED DIETS PROVIDING IMPROVED DIGESTION IN FISH” (SOUTHERN ILLINOIS UNIVERSITY, priority 2005, published 2009).

Assay [1] relates to juvenile sunshine bass Morone chrysops×M. saxatilis. Nature of the assay: Gastric residuum stratification trial with pelleted diets with varied levels of lecithin inclusion. Format: in vivo. Particulars: 2% BWD meal, 4.5 h post-prandial. The text has this: Residuum appearance: Nine pellet trained sub-adult spotted bass (mean weight=150 grams) were maintained in isolation in 37.8 L glass aquariums for seven days. During days 1-5, the bass were hand-fed to satiation once daily with either a semi-purified pellet diet (See Table 2), live paper shell crayfish (Orconectes immunis), or live fathead minnows (Pimephales promelas). Three bass were given each dietary treatment. Crayfish and minnows were maintained on the same pelleted diet as the bass and fed to apparent satiation two times daily. On Day 6, food was withheld to allow complete evacuation of gastric contents. On Day 7, the bass were fed that same food as during Days 1-5, at a rate of approximately 2% of their body weight (dry weight of feed/wet weight of bass). Post-prandially (4.5 hours) the bass were dispatched with blunt trauma to the head before immersion in liquid nitrogen until frozen solid (approx. 2 mins.). The bass were stored frozen until the residuum was removed by dissection. The position of the pyloric sphincter was noted relative to the observed strata. Representative residua were photographed. Residuum strata were separated using a razor blade for determination of proximate composition.
Juvenile sunshine bass Morone chrysops×M. saxatilis (n=15) were stocked individually into 110 L tanks and acclimated for a period of five days. […]

The subject of assay [2] is hybrid striped bass (Morone chrysops X M. saxatilis). Nature of the assay: Growth and feed efficiency trial of practical diets supplemented with a non-nutritive emulsifier. Particulars: for FCR (feed conversion ratio) / Weight Gain (%): 28 days, initial weight 15 g; for Weight Gain (%): fed daily to satiation. Format: in vivo. An excerpt: The present example provides details of experiments conducted to evaluate and quantify the effects of a non-nutritive emulsifier upon the growth and feed efficiency of phase-I hybrid striped bass (Morone chrysops×M. saxatilis). Tween-80® (provided as a liquid supplement) was incorporated into practical diets formulated to meet, or exceed, the known nutrient requirements of hybrid striped bass. Diets were formulated at Southern Illinois University using MIXIT 3 WIN (Agricultural Software Consultants, Inc., San Diego) and manufactured as cold pressed pellets.
Fish were stocked at a density of 15 fish per tank. Four practical diets were formulated to meet or exceed the known dietary requirements of juvenile hybrid striped bass. Each diet was supplemented with one of four concentrations of emulsifier providing dietary treatments of 0, 0.5, 1.0, and 2.0% Tween-80®, respectively. Fish were fed daily to satiation and feed consumption was monitored weekly. After 4 weeks, all fish in each tank were weighed to determine growth. Feed consumption was used to calculate feed conversion ratio (g feed:g weight gain).

[3] abbreviates: juvenile hybrid striped bass, practical diets.

As to lecithin (phosphatidyl choline), in assay [1] (lecithin inclusion rates of 0.25, 0.50, 1.00 and 2.00% of pellet weight), the “stratification of the gastric residuum” value was “reduce stratification of the gastric residuum”. For the same molecule, in assay [1] (lecithin inclusion rates of 0.50, 1.00 and 2.00%), the “amount of post-prandial water intake into the gastric residuum” value is listed as “reduce the amount of post-prandial water intake”.

Take `CCCCCCCC/C=C\CCCCCCCC(=O)OCCOCC(OCCO)C1OCC(OCCO)C1OCCO` (stereo not shown) [Tween-80]: in assay [2] (0.5% Tween-80 in diet), the “FCR (feed conversion ratio)” value is on record as 1.21 g feed:g gain and the “Weight Gain (%)” value came out at 118%. In assay [2] (1.0% Tween-80 in diet), the “FCR (feed conversion ratio)” value is given as 1.16 g feed:g gain and the “Weight Gain (%)” value was determined as 140%. Moreover, in assay [2] (2.0% Tween-80 in diet), the “FCR (feed conversion ratio)” value is reported as 1.23 g feed:g gain and the “Weight Gain (%)” value stood at 125%. Moreover, in assay [2] (setting [3]), the “feed conversion compared to fish fed a control diet void of Tween-80” value is given as “improved” and the “weight gain compared to fish fed a control diet void of Tween-80” value was “improved”.
